Tests used:
reproductive cycle = assay: Reproductive cycle change assay by vaginal smearing; format: in vivo, CD-1 mice; settings: subcutaneous injection for 14 days, FIG. 9
Method: (§1) The placenta 1 extract prepared according to the example was dissolved with 100% ethanol as a primary solvent, and sesame oil for body injection was added thereto to obtain a 1 g/ml concentration, and the resultant product was diluted into 0.1% concentration. Herein, 100% was defined as a case in which the extract was diluted with sesame oil by a factor of 100. The diluted extract was subcutaneously injected for 14 days to 6-8 week-old CD-1 mice which had been raised under physiological conditions (6 mice per each group).
To identify effects of the placenta extract on a reproductive cycle, a reproductive cycle was assayed by vaginal smearing during the administration of the placenta extract.

[1] = system: CD34 hematopoietic stem cells; assay: CD34-marked numerical change assay of hematopoietic stem cells using FACS; format: in vivo, CD-1 mouse; settings: 0.1% placenta extract, subcutaneous, 14 days, FIG. 10
Method: as §1
Whether the placenta extract promotes proliferation of hematopoietic stem cells was identified with CD34 that is a marking factor. CD-1 mouse treated with 0.1% placenta extract was sacrificed to collect a thighbone, and then, a bone marrow was extracted therefrom by using PBS solution. Thereafter, the bone marrow was reacted with CD34 specific antibody, and then, CD34 hematopoietic stem cells were counted by using a fluorescent activated cell sorter.

red blood cells = assay: Numerical change assay of red blood cells in peripheral blood; format: in vivo, CD-1 mice; settings: 0.1% placenta extract, subcutaneous, 14 days; compared to the control; FIG. 11
Method: as §1
The cells were treated with 0.1% placenta extract under the same conditions as described above, and then, peripheral blood was collected, and then, 1 mg/ml of EDTA was added thereto to prevent blood coagulation. Then, the number of red blood cells was counted by using an analyzer.

## C[C@]12CC[C@H]3[C@@H](CCC4=CC(=O)CC[C@@H]43)[C@@H]1CC[C@@H]2O [nandrolone]
Reproductive cycle
  reproductive cycle periodicity: a reproductive cycle gradually became non-periodic
[1]
  number of CD34 hematopoietic stem cells in bone marrow: the number of hematopoietic stem cells significantly increased
Red blood cells
  number of red blood cells in peripheral blood: the number of red blood cells significantly increased

Source: patent US20130072466A1, “COMPOSITION CONTAINING PLACENTA EXTRACTS” (Industry-Academic Cooperation Foundation, Yeungnam …, priority 2010, published 2013)
